Results reported in a melting point compilation (Tetko et al.; mined from patent text by program, amines drawn as free bases though some values may be those of a salt).

Row | Compound | melting point [°C]
1 | Cc1cc(F)ccc1-c1ccc(S(=O)(=O)N2c3ccccc3CC2C(=O)NCCOc2ccc(CC(=O)O)cc2)cc1 (stereo not drawn) | 99 to 105
2 | O=C(O)c1ccc2c(c1)OC(c1cc(F)cc(F)c1)(c1cc(F)cc(F)c1)O2 | 96
3 | O=C(c1cc(I)c(O)c(I)c1)c1c(Cc2ccccc2)oc2ccccc12 | 153 to 154
4 | CC(C)(C)C(=O)CN1CCNC1=N[N+](=O)[O-] | 158 to 159
5 | O=C1CCC(c2ccccc2)(c2ccccc2)[C@@H]2CN(C(=O)Cc3ccc(Cl)cc3)C[C@H]12 (racemic) | 213
6 | CN(C)CCCCCCCCCOc1ccc2oc(-c3ccccc3)cc(=O)c2c1 | 52 to 53
7 | CN1C(=O)CN=C(c2cccc(Cl)c2)c2cc(C(=O)c3ccc(Cl)cc3)ccc21 | 176
8 | COCN(C(=O)CCl)c1c([N+](=O)[O-])cccc1[N+](=O)[O-] | 106 to 108
9 | COc1cc(C2CCN(C(=O)CN)CC2)ccc1Nc1ncc2ccc(-c3ccccc3OC)n2n1 | 86 to 99
10 | C=CCC1(CCNC(=O)C2CCC2)c2cc(OC)ccc2CCC12OCCO2 (stereo not drawn) | 99 to 101
11 | CN(c1ccccc1)S(=O)(=O)c1ccc(C#CC(C)(O)C(F)(F)F)cc1 (stereo not drawn) | 116 to 118
12 | COc1cc(O)c2c(=O)c3ccccc3n(C)c2c1 | 162 to 164
13 | Clc1ccc(OC(C(OCc2ccc(Cl)cc2Cl)c2ccc(Cl)cc2Cl)n2cncn2)cc1 (stereo not drawn) | 132 to 135
14 | CC(C)(C)OC(=O)NN(C(=O)OC(C)(C)C)C1(c2cccnc2)CCCCC1=O (stereo not drawn) | 123 to 125
15 | O=c1ccn(-c2cccc(C(F)(F)F)c2)nc1-c1ccnn1CC1CC1 | 155 to 157
16 | COc1cc(C=Nc2cc(Cl)c(N=CN(C)C)c(Cl)c2)cc(OC)c1 | 133 to 135
17 | CC(=O)OC1CSC(Oc2ccc(-c3c(C)n[nH]c3C)nc2)C(OC(C)=O)C1OC(C)=O (stereo not drawn) | 154
18 | CC(S)C(Cc1ccccc1)C(=O)Nc1cccc(C(=O)O)c1 (stereo not drawn) | 192 to 196
19 | Cc1ccc(C(=O)c2ccc(OCC(=O)O)c(Cl)c2Cl)cc1 | 176 to 177
20 | N#Cc1cn(CCl)cc1-c1ccccc1Cl | 97 to 99
21 | CC(C)(C)OC(=O)N1C[C@@H](Oc2ccc(N)cc2)C[C@@H]1C(=O)Nc1cc(C(C)(C)C)c(O)c(C(C)(C)C)c1 | 104 to 106
22 | CC1(C)CC(NC(=O)c2cc(C(C)(C)C)c(O)c(C(C)(C)C)c2)CC(C)(C)N1 | 256 to 258
23 | CC(O)=C(C#N)CC(=O)Nc1ccc(NC(=O)CBr)cc1 | > 210
24 | COc1cc2cc3c(Nc4ccc(F)c(Cl)c4)c(C#N)cnc3cc2cc1OCCCl | 137 to 159
25 | O=c1c(-c2ccccc2)ccc2n1CCc1sccc1-2 | 187 to 189

Row | Compound | melting point [°C]
26 | CS(=O)c1ccc(C(=O)c2cnoc2C2CC2)c(Cl)c1 (stereo not drawn) | 117
27 | Cc1ccccc1OCCC(=O)N(C)c1ccccc1 | 76
28 | O=C(O)c1sccc1SSc1ccsc1C(=O)O | 256 to 257
29 | O=CC(CC(=O)c1ccc(F)cc1)c1ccccc1 (stereo not drawn) | 192 to 194
30 | COc1cc(OC)c2c(=O)cc(Oc3ccccc3)oc2c1C1CCN(C)CC1O (stereo not drawn) | 238 to 239
31 | CCCC(O)c1cnc2nc(C)c(OCC)cc2c1Nc1ccc(OC)cc1 (stereo not drawn) | 120 to 124
32 | CCOC1CC2(C)C(CCC3C4CCC(C(=O)OC)C4(C)CC(NC4CCCCC4)C32)CC1O (stereo not drawn) | 110 to 112
33 | CCCCc1nc2ccc(C(=O)O)cc2n1Cc1ccccc1Cl | 238 to 241
34 | COc1cc(C(=O)n2ccnc2)cc([N+](=O)[O-])c1OC | 136 to 137
35 | Cc1cc(-n2ccnc2)c2cccc(OCc3c(Cl)ccc(S(=O)(=O)N4CCC(CO)CC4)c3Cl)c2n1 | 100
36 | COc1ccc(CCNS(=O)(=O)c2ccc([N+](=O)[O-])cc2)cc1 | 92 to 93
37 | Cc1oc(-c2ccccc2)nc1COc1ccc(COC(=O)Cc2cccc(OCc3ccc(OCc4nc(-c5ccccc5)oc4C)cc3)c2)cc1 | 90 to 91
38 | OC1(C23CC4CC(CC(C4)C2)C3)CCCCC1 | 166 to 168
39 | CCOC(=O)N1CCN(c2ccc(OC[C@H]3CCn4cc([N+](=O)[O-])nc4O3)cc2)CC1 | 218
40 | CC(=O)NCN(C(=O)CCl)C(=C(C)C)C(C)C | 113 to 114
41 | CC(Cc1ccccc1C(=O)O)c1cccs1 (stereo not drawn) | 66 to 68
42 | CN1C(=O)Cc2c(Cl)cc(Cl)cc21 | 144 to 145
43 | Cc1nn(-c2cccnc2)cc1NC1CC1 | 104 to 107
44 | Cc1c(NC(=O)c2ccc(-c3ccc(F)cc3)cc2)ccc2cc(C(C)O)cnc12 (stereo not drawn) | 189 to 192
45 | CON1CCC(CC2NC(=O)C(c3cc(C)ccc3C)=C2O)CC1 (stereo not drawn) | 116 to 119
46 | O=C(ON1C(=O)CCC1=O)c1ccc(-c2ccc(S(=O)(=O)N3CCCC(CO)C3)cc2)[nH]c1=O (stereo not drawn) | 201 to 204
47 | CCN(CC)CCNc1ccc(CO)c2sc3ccc(OC)cc3c(=O)c12 | 103 to 105
48 | Cc1csc(-c2ccc3nnn(Cc4ccc5ncccc5c4)c3n2)c1 | 153 to 156
49 | Cc1ccc(NS(=O)(=O)c2ccc(N3CCNC3=O)cc2)cc1 | 218 to 220
50 | COc1ccc(S(=O)(=O)N(CCn2ccnc2)c2ccc(Cl)cc2Cc2c(F)cccc2F)cc1OC | 160

Row | Compound | melting point [°C]
51 | O=Cc1cn([C@H]2CCc3c(F)cc(F)cc3C2)c(=S)[nH]1 | > 285
52 | CC(C)N(CCC1(c2ccccn2)CCC(=O)NC1=O)C(C)C (stereo not drawn) | 101 to 102
53 | CCc1c(O)cc(O)c(C(=O)c2ccc(OC)cc2)c1CC(=O)N(CCO)CCN1CCOCC1 | 235 to 237
54 | O=C(Nc1ccc2ccc(-c3cccc(F)c3)nc2n1)c1cccc(Br)c1 | 208
55 | Nc1ccccc1C(=O)C1CCC1 | 55
56 | CC(C)N1CC(C(=O)c2ccc(Cc3ccc(F)cc3)s2)=C(O)C1=O | 138 to 139
57 | O=C1NC(=O)C(Cc2cccs2)N1 (stereo not drawn) | 188 to 190
58 | FCc1cc(-c2nnc3c4ccccc4c(OCc4nc[nH]n4)nn23)no1 | 266 to 268
59 | CC(C)c1ccc2c(c1)C(N1CCN(CCCO)CC1)Cc1ccc(F)cc1S2 (stereo not drawn) | 106 to 108
60 | COc1ccc2c(=O)n(S(=O)(=O)c3ccc(C)cc3)c(=O)[nH]c2c1 | 228 to 231
61 | Cc1cc(CNC(=O)c2cc(-c3ccc(C(C)(C)C)cc3)n(Cc3ccccc3)n2)ccc1OC(C)(C)C(=O)O | 88
62 | COC(=O)C1Oc2ccccc2CC1CO (stereo not drawn) | 84 to 85
63 | O=C(O)COC1=C(Cc2ccc3c(Cl)cccc3c2)C(=O)CC1 | 156 to 158
64 | CCCCCCCCCCCCCCCCN(CC(O)CO)C(C)=O (stereo not drawn) | 56 to 58
65 | CSC(C)=NOC(=O)N(C)SN(C(C)C)P1(=O)OCCCO1 | 134 to 135
66 | COc1cc(Nc2nc3ccnc(-c4ccc(S(N)(=O)=O)cc4)c3o2)cc(OC)c1OC | > 280
67 | COc1cccc([N+](=O)[O-])c1N | 67 to 68
68 | CN(C)Cc1cccc(OCCCNc2nc(-c3ccccc3)n[nH]2)c1 | 126 to 128
69 | Cc1cc(C)nc(NC(=O)NS(=O)(=O)c2ccccc2C(=O)O)n1 | 160
70 | CCc1nnc2ccc(-c3ccc(Cl)cc3)nn12 | 197 to 199
71 | O=c1cc(-c2ccccc2)oc2c(C=S)cccc12 | 153 to 157
72 | COc1c(C)c(C)c(OC)c(Cc2ccccc2)c1C | 53 to 54
73 | CCCCCC(O)/C=C/n1ccnc1 (stereo not drawn) | 145 to 148
74 | Cc1cc(SCc2ccc(OCc3ccc(F)cc3F)cc2)ccc1OCC(=O)O | 139 to 141
75 | CC(C)c1nc(N(C(C)C)C(C)C)c([N+](=O)[O-])c(N(C(C)C)C(C)C)n1 | 45

Row | Compound | melting point [°C]
76 | CC(=O)c1nc(C)n2c1CN=C(c1ccccc1Cl)c1cc(Cl)ccc1-2 | 234 to 236
77 | C(=CCN1C(c2ccccc2)CCCC1c1ccccc1)CN1C(c2ccccc2)CCCC1c1ccccc1 (stereo not drawn) | 197 to 200
78 | CCOC(=O)COc1ccc(-c2nc3ncccc3[nH]2)c(OC)c1 | 198
79 | Cc1cc(F)c(N)cc1N | 112
80 | CC1(C)COc2cc(O)c(C=O)cc21 | 100 to 102
81 | [N-]=[N+]=NCCCc1ccc(C(=O)O)s1 | 71 to 72
82 | O=C(Cc1cccc(OCCCN(Cc2cccc(C(F)(F)F)c2Cl)CC(c2ccccc2)c2ccccc2)c1)NS(=O)(=O)c1ccccc1 | 110
83 | C[C@@H](n1ncn(-c2ccc(-n3ncn(-c4ccc(OCC(F)(F)C(F)F)cc4)c3=O)cc2)c1=O)[C@@]1(c2ccc(F)cc2F)CO1 | 181 to 183
84 | Cc1nc(N2CCN(CC(C)C)C2=O)sc1C(=O)NCc1cocn1 | 115 to 118
85 | Cc1cc(C(C)(C)C)c(OP2OCCN2C(C)(C)C)c(C(C)(C)C)c1 (stereo not drawn) | 105 to 107
86 | C#CCn1c(-c2ccccc2)nc(O)c(CC)c1=O | 159 to 160
87 | Cc1c(C)c(CC(C)(C)C#N)c(C)c(C)c1CC(C)(C)C#N | 187 to 190
88 | CCCCOCC(CO)OCn1cnc2c(O)nc(N)nc21 (stereo not drawn) | 208 to 211
89 | C=CCc1c(O)ccc2oc(C(=O)c3ccc(F)cc3)c(C)c12 | 164 to 166
90 | CCOC(=O)C(O)c1cc(F)cc2cccnc12 (stereo not drawn) | 84 to 87
91 | CCc1cn(C2OC(CNC(=O)C(C)Oc3c(Cl)cc(Cl)c(OC)c3Cl)C(O)C2F)c(=O)[nH]c1=O (stereo not drawn) | 210 to 211
92 | Cc1nc2cc3c(cc2n1C)C(=O)OC3=O | 310 to 315
93 | CCO[C@@H](Cc1ccc2c(ccn2Cc2nc(-c3ccccc3OC)oc2C)c1)C(=O)O | 59 to 60
94 | COC(=O)c1cccc2[nH]c(Sc3cccc4c(=O)cc[nH]c34)nc12 | > 250
95 | Cc1ccc(-c2ccc(S(C)(=O)=O)cc2)n1-c1ccc(-c2nccs2)cc1 | 190 to 191
96 | CCN1C(=O)C(C)(C)C(=O)N(C)c2cc(CN(CCn3c(=O)ccc4ccccc43)Cc3ccc(OC)nc3C)ccc21 | 143 to 144
97 | Nc1c(Cl)cc(C(O)CNCCCCCOCCc2ccccc2)cc1C(F)(F)F (stereo not drawn) | 70 to 71.5
98 | Cn1cc(-c2ccc(F)cc2)nc1SCCSc1nc(-c2ccc(F)cc2)c(-c2ccc(F)cc2)[nH]1 | 202 to 205
